Data: ChEMBL document CHEMBL1201862, “PubChem BioAssay data set” (2004)
Active and inactive are the calls of the source.

Assays:
[1] = target: T1, Short transient receptor potential channel 4 (Mus musculus, UniProt Q9QUQ5); assay: mouse TRPC4 channel inhibitors, dose response, cell-based, HEK293 TRPC4/mu-opioid, Fluo-4 calcium (AID 434942); format: functional;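 further: potency of inhibitors blocking the TRPC4 calcium response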
T1 sequence (Q9QUQ5 whole entry): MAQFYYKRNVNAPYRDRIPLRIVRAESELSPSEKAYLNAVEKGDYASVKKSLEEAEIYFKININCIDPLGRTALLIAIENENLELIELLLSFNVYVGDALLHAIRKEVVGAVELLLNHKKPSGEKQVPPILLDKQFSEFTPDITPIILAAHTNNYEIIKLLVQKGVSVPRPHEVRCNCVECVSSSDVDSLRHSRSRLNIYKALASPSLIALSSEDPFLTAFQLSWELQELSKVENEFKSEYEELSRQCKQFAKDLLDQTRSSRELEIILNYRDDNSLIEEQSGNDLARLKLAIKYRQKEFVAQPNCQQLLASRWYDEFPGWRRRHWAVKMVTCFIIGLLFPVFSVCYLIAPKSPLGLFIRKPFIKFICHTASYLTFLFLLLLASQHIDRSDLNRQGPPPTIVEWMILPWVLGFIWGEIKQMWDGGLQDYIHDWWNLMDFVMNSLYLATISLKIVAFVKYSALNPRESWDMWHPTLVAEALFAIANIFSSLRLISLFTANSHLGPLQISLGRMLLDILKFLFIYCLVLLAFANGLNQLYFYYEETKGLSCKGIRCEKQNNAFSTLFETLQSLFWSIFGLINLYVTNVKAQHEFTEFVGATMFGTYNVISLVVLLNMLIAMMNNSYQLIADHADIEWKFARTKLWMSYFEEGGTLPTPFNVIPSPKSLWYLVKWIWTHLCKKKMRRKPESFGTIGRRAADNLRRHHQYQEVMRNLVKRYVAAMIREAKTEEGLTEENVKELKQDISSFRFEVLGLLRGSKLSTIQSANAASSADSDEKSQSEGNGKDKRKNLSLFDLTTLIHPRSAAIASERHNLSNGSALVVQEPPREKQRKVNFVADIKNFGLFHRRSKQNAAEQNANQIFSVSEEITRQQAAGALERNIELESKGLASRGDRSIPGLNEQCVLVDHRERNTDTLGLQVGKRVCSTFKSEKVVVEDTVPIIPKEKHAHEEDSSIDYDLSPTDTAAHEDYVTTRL

[2] = target: T2, Polyadenylate-binding protein 1 (Homo sapiens, UniProt P11940); assay: PABP1 MLLE–PAM2 binding inhibitor potency, dose response, biochemical, fluorescence polarization, FITC-PAM2 peptide (AID 602259); format: functional; conditions: read-out: IC50_Mean
T2 sequence (P11940 whole entry): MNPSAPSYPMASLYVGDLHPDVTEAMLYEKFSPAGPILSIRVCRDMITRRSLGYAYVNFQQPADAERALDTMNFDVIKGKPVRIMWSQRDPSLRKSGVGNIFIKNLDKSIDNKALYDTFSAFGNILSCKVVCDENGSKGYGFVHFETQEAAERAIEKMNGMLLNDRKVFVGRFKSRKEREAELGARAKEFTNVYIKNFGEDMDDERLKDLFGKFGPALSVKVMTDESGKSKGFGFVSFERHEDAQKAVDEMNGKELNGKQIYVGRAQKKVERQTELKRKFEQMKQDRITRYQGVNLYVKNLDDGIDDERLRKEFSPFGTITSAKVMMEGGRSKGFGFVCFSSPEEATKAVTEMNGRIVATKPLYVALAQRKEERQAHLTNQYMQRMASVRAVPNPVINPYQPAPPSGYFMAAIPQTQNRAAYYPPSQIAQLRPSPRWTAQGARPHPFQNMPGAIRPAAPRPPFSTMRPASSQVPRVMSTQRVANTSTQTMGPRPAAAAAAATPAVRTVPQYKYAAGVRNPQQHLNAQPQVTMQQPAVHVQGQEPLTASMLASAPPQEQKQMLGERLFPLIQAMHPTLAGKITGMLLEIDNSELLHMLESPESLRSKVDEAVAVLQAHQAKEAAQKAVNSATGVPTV

[3] = target: T2, Polyadenylate-binding protein 1; assay: PABP1 MLLE–PAM2 interaction inhibitors, dose response, miRNA deadenylation inhibitor project, biochemical, fluorescence polarization, Cy5-PAM2 peptide, secondary (AID 602260); format: functional; conditions: read-out: IC50_Mean
[4] = cytotoxicity in HEK-293T cells, dose response, cytotoxicity control for TCR NF-kB inhibitor project, luminescence, T-cell screen hits (AID 489026); format: functional, cell-based;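 further: cells exposed to compound about 14 hours before the viability readout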
[5] = Shn3 3'UTR reporter inhibitors, dose response, cell-based, Clone20 osteoblasts, firefly luciferase, cherry-picked (AID 624132); format: functional;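 further: firefly luciferase luminescence from reporter carrying the Shn3 3'UTR in osteoblasts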
[6] = HEp-2 cell cytotoxicity, dose response, cytotoxicity control for RSV inhibitor project, HTS (AID 2410); format: functional; conditions: human respiratory syncytial virus
[7] = Luminescence Cell-Based Dose Response HTS to Identify Inhibitors of 5'UTR Stem-Loop Driven Prion Protein mRNA Translation in H4 Neuroglioblastoma Cells. [Related pubchem assays: 1827 (Project Summary), 1813 (Primary HTS)]; format: functional
[8] = inhibitors of firefly luciferase expression or activity, dose response, H4 neuroglioma cells, luminescence (AID 1990); format: functional, cell-based
[9] = inhibitors of SNCA 5'UTR-driven reporter translation, confirmation, H4 neuroglioma cells, luminescence (AID 1988); format: functional, cell-based
[10] = Luminescence Cell-Based Dose Retest to Confirm Inhibitors of Cancer Stem Cells. [Related pubchem assays (depositor defined):AID2717, AID2721]; format: functional; conditions: Homo sapiens
Paired box protein Pax-8 = Paired box protein Pax-8 (Homo sapiens, UniProt Q06710); assay: inhibitors of PAX8-driven TPO luciferase reporter, dose response, RMG-I cells, cherry-pick (AID 687027); format: functional, cell-based;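 further: luciferase reporter driven by Pax8 target thyroperoxidase promoter measured by SteadyGlo luminescence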
Chain of Paired box protein Pax-8 (Q06710 whole entry): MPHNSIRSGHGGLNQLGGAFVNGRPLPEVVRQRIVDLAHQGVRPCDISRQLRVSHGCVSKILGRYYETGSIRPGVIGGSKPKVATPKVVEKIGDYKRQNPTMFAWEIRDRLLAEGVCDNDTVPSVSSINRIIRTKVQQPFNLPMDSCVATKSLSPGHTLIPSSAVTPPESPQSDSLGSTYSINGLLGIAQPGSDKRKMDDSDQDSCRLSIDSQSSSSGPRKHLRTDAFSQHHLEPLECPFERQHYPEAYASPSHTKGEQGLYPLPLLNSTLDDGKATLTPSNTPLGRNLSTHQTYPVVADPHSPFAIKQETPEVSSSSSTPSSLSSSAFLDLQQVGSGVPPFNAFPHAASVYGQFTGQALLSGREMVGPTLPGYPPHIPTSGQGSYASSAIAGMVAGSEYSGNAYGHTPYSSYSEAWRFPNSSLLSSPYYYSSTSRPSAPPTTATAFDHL

Cytochrome P450 2C9 = Cytochrome P450 2C9 (Homo sapiens, UniProt P11712)
Chain of Cytochrome P450 2C9 (P11712 whole entry): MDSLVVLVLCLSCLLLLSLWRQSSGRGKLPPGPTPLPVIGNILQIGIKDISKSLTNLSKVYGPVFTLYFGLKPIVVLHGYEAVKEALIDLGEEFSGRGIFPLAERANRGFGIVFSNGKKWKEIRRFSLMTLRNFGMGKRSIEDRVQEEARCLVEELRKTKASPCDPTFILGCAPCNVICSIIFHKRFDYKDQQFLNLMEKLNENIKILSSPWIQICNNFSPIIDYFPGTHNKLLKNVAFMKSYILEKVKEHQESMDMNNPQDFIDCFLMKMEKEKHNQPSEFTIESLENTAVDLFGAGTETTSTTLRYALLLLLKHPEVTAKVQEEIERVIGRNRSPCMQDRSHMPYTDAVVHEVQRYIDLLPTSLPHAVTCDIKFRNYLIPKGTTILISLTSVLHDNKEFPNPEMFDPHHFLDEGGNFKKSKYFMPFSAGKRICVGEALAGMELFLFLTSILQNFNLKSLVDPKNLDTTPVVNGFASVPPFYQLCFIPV

[11] = target: Heat shock protein HSP 90-alpha (Homo sapiens, UniProt P07900); format: functional, organism-based
[12] = target: T3, Calpain-2 catalytic subunit (Sus scrofa, UniProt P43367); assay: pig calpain II inhibitor potency, dose response, biochemical, fluorogenic peptide substrate (AID 1420); format: functional
T3 sequence (P43367 whole entry): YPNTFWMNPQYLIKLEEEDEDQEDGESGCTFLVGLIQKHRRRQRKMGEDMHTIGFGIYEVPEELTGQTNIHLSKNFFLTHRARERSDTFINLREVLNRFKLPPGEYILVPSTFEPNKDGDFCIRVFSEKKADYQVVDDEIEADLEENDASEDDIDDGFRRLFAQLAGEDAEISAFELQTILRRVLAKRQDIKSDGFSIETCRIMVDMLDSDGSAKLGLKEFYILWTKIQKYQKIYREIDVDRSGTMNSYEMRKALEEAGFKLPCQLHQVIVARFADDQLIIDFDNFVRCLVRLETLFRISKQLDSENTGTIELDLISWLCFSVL

## CCOC(=O)c1c(NC(=O)C2CC(Cl)=CCC2C(=O)O)sc2c1CCCCC2 (stereo unspecified)
[1]
  EC50: 6.68 µM (active)

## O=C(NC(=S)NCCC1=CCCCC1)c1ccccc1Br
[2]
  IC50: > 66 µM (inactive)
[3]
  IC50: > 66 µM (inactive)

## COC(=O)c1cn(NC(=O)c2cc([N+](=O)[O-])ccc2F)c(=O)c2ccccc12
[4]
  IC50: > 80 µM (inactive)
[5]
  AC50: 2.85 µM (active)
[6]
  CC50: 3.87 µM (active)

## COC(=O)Nc1ccc(S(=O)(=O)N2CCCc3ccccc32)cc1
[4]
  IC50: > 80 µM (inactive)
[7]
  EC50: 7.32 µM (active)
[8]
  EC50: 8.02 µM (active)
[9]
  EC50: 0.37 µM (active)
[10]
  AC50: 0.362 µM (active)

## Cc1ccc(C(=O)c2cc([N+](=O)[O-])ccc2N2CCCCC2)c(C)c1
[4]
  IC50: > 80 µM (inactive)
Paired box protein Pax-8
  AC50: 0.929 µM (active)

## Cc1c(C#N)c(=O)oc2ccc3ccccc3c12
Cytochrome P450 2C9
  AC50: inconclusive

## CC[n+]1c(/C=C(/C)SC)sc2ccccc21
[2]
  IC50: > 66 µM (inactive)
[3]
  IC50: > 66 µM (inactive)

## Cc1ccc(-c2nc3cccnc3s2)cc1NS(=O)(=O)c1ccc2c(c1)OCCO2
[11]
  AC50: 2.9 µM (active)

## COc1ccc(/C=N/NC(=O)C2c3ccccc3Oc3ccccc32)c(OC)c1
[12]
  IC50: 10.9 µM (not active)

## O=C(CNC(=O)C12CC3CC(CC(C3)C1)C2)NC1=NCCS1
[2]
  IC50: > 66 µM (inactive)
[3]
  IC50: > 66 µM (inactive)

## O=C(NN1C(=O)c2ccccc2NC1c1ccco1)c1ccc([N+](=O)[O-])cc1 (stereo unspecified)
[12]
  IC50: 10.6 µM (not active)
